PubChem BioAssay (NCI)
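Cultured in 96-well plates, cells were exposed to test compound for 48 hours across five concentrations. At the GI50, growth is halved. TGI is the concentration that stops growth completely.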

Key:
Experiment in all cases: DTP human tumour cell line panel, 48 h
[1] = test system: NCI-H23 lung
[2] = test system: M14 melanoma
[3] = test system: OVCAR-3 ovarian
[4] = test system: CAKI-1 renal
[5] = test system: SK-MEL-28 melanoma
[6] = test system: U251 CNS
[7] = test system: UACC-62 melanoma
[8] = test system: OVCAR-8 ovarian
[9] = test system: OVCAR-5 ovarian
[10] = test system: NCI/ADR-RES ovarian

Structure (SMILES): O=[N+]([O-])c1ccccc1C1N2CCCCC2[C@@H]2c3[nH]c4ccccc4c3CCN12 (some centres undefined)
- TGI [1]: 27.5 µM
- TGI [2]: 26.7 µM
- TGI [3]: 63.3 µM
- TGI [4]: 29.9 µM
- TGI [5]: 26.6 µM
- TGI [6]: 31.3 µM
- TGI [7]: 14.4 µM
- TGI [8]: 39.1 µM
- TGI [9]: 40 µM

Structure (SMILES): O=c1[nH]c(=S)[nH]c(O)c1/C=C1\C=CC=N1
- TGI [1]: 40 µM
- TGI [2]: 54.8 µM
- TGI [3]: 21.8 µM
- TGI [4]: 25.6 µM
- TGI [5]: 48.5 µM
- TGI [6]: 89.2 µM
- TGI [7]: 35.6 µM
- TGI [8]: 17.9 µM
- TGI [9]: 47 µM

Structure (SMILES): O=Nc1c(O)ccc2ccccc12
- GI50 [2]: 1.92 µM
- TGI [2]: 3.84 µM
- GI50 [10]: 2.92 µM
- TGI [10]: 9.21 µM
- GI50 [3]: 2.55 µM
- TGI [3]: 9.15 µM
- GI50 [4]: 3.1 µM
- TGI [4]: 12.1 µM
- GI50 [5]: 2.8 µM
- TGI [5]: 6.6 µM
- GI50 [6]: 2.17 µM
- TGI [6]: 5.52 µM
- GI50 [7]: 1.86 µM
- TGI [7]: 3.83 µM
- GI50 [8]: 2.28 µM
- TGI [8]: 7.04 µM
- GI50 [9]: 1.83 µM
- TGI [9]: 3.44 µM

Structure (SMILES): CCC1(CN(C)C)CC/C(=C\c2ccc3c(c2)OCO3)C1=O (centres undefined)
- TGI [1]: > 100 µM
- TGI [2]: > 100 µM
- TGI [3]: > 100 µM
- TGI [4]: > 100 µM
- TGI [5]: > 100 µM
- TGI [6]: > 100 µM
- TGI [7]: > 100 µM
- TGI [8]: > 100 µM
- TGI [9]: > 100 µM

Structure (SMILES): c1ccc(-c2nc(N3CCNCC3)c3nc(-c4ccccc4)oc3n2)cc1
- GI50 [1]: 1.76 µM
- TGI [1]: 3.32 µM
- GI50 [2]: 1.96 µM
- TGI [2]: 3.71 µM
- GI50 [10]: 1.87 µM
- TGI [10]: 3.69 µM
- GI50 [3]: 1.78 µM
- TGI [3]: 3.25 µM
- GI50 [4]: 1.55 µM
- TGI [4]: 2.94 µM
- GI50 [5]: 1.81 µM
- TGI [5]: 3.29 µM
- GI50 [7]: 1.78 µM
- TGI [7]: 3.23 µM
- GI50 [9]: 1.7 µM
- TGI [9]: 3.15 µM

Structure (SMILES): Cc1nc(C(N)=S)sc1C(=O)/C=C/c1cccc(O)c1
- TGI [1]: > 100 µM
- TGI [3]: > 100 µM
- TGI [4]: > 100 µM
- TGI [5]: > 100 µM
- TGI [6]: > 100 µM
- TGI [7]: > 100 µM
- TGI [8]: > 100 µM
- TGI [9]: > 100 µM

Structure (SMILES): CCC1(OC(C)=O)C(=O)OCc2c1cc1n(c2=O)Cc2cc3ccccc3nc2-1 (centres undefined)
- TGI [1]: 4.6 µM
- TGI [2]: > 33 µM
- TGI [3]: > 100 µM
- TGI [4]: 36 µM
- TGI [5]: > 100 µM
- TGI [6]: 2.64 µM
- TGI [8]: > 100 µM
- TGI [9]: 28.9 µM

Structure (SMILES): Cc1cc(C)c(C(=O)OC(c2ccccc2)C(c2ccccc2)N2CCOCC2)c(C)c1 (centres undefined)
- TGI [1]: > 100 µM
- TGI [2]: > 100 µM
- TGI [3]: > 100 µM
- TGI [4]: > 100 µM
- TGI [5]: > 100 µM
- TGI [6]: > 100 µM
- TGI [7]: > 100 µM

Structure (SMILES): COc1ccc(NC(=O)C(=O)C2NC(=S)NC2=O)c(OC)c1 (centres undefined)
- TGI [1]: > 100 µM
- TGI [2]: > 100 µM
- TGI [3]: > 100 µM
- TGI [5]: > 100 µM
- TGI [6]: > 100 µM
- TGI [7]: > 100 µM
- TGI [8]: > 100 µM

Structure (SMILES): O=[N+]([O-])c1ccc(Cl)c(C2SCc3nc4ccccc4n32)c1 (centres undefined)
- TGI [1]: > 100 µM
- TGI [3]: > 100 µM
- TGI [4]: 76.1 µM
- TGI [5]: > 100 µM
- TGI [6]: > 100 µM
- TGI [7]: > 100 µM
- TGI [8]: > 100 µM
- TGI [9]: > 100 µM

Structure (SMILES): CC[C@@H]1OC2(C)CC(S(=O)(=O)c3ccccc3)CC1O2 (some centres undefined)
- TGI [1]: > 100 µM
- TGI [2]: > 100 µM
- TGI [3]: > 100 µM
- TGI [4]: > 100 µM
- TGI [5]: > 100 µM
- TGI [6]: > 100 µM
- TGI [7]: > 100 µM
- TGI [8]: > 100 µM
- TGI [9]: > 100 µM

Structure (SMILES): CCc1cccc(C)c1NC(=O)NS(=O)(=O)c1ccc(C)cc1
- TGI [1]: > 100 µM
- TGI [2]: > 100 µM
- TGI [3]: > 100 µM
- TGI [4]: > 100 µM
- TGI [5]: > 100 µM
- TGI [6]: > 100 µM
- TGI [7]: > 100 µM
- TGI [8]: > 100 µM
- TGI [9]: > 100 µM

Structure (SMILES): CCOC(=O)C(C[Si](C)(C)C)P(=O)(OCC)OCC (centres undefined)
- TGI [1]: > 100 µM
- TGI [2]: > 100 µM
- TGI [3]: > 100 µM
- TGI [4]: > 100 µM
- TGI [5]: > 100 µM
- TGI [6]: > 100 µM
- TGI [7]: > 100 µM
- TGI [8]: > 100 µM
- TGI [9]: > 100 µM

Structure (SMILES): O=Cc1coc2ccccc2c1=O
- TGI [1]: 70.7 µM
- TGI [2]: 38.5 µM
- TGI [10]: 34.9 µM
- TGI [3]: > 100 µM
- TGI [4]: 52.9 µM
- TGI [6]: 65.2 µM
- TGI [7]: 52.8 µM
- TGI [8]: 35.3 µM
- TGI [9]: 56.2 µM

Structure (SMILES): O=C1C(c2ccccc2)=C(c2ccccc2)C(c2ccc(CCCCCCc3ccc(C4=C(c5ccccc5)C(=O)C(c5ccccc5)=C4c4ccccc4)cc3)cc2)=C1c1ccccc1
- TGI [1]: > 100 µM
- TGI [2]: > 100 µM
- TGI [3]: > 100 µM
- TGI [5]: > 100 µM
- TGI [6]: > 100 µM
- TGI [7]: > 100 µM
- TGI [8]: > 100 µM
- TGI [9]: > 100 µM

Structure (SMILES): O=C1C2=C(c3ccccc31)C(c1ccccc1Cl)N1C(=O)CSC1=N2 (centres undefined)
- TGI [1]: > 100 µM
- TGI [2]: > 100 µM
- TGI [3]: > 100 µM
- TGI [4]: > 100 µM
- TGI [5]: > 100 µM
- TGI [6]: > 100 µM
- TGI [7]: > 100 µM
- TGI [8]: > 100 µM
- TGI [9]: > 100 µM

Structure (SMILES): Cc1ccc(NC(=O)C(=O)Cc2nc3ccccc3o2)c(C)c1
- TGI [1]: > 100 µM
- TGI [2]: > 100 µM
- TGI [3]: > 100 µM
- TGI [4]: > 100 µM
- TGI [5]: > 100 µM
- TGI [6]: > 100 µM
- TGI [7]: > 100 µM
- TGI [8]: > 100 µM
- TGI [9]: > 100 µM

Structure (SMILES): COC(=O)C1=C(C(=O)OC)C2(C(=O)OC)OC1(OC)C(C1(C(=O)OC)C(C(=O)OC)=C1C(=O)OC)=C2C(=O)OC (centres undefined)
- TGI [1]: > 100 µM
- TGI [2]: > 100 µM
- TGI [3]: > 100 µM
- TGI [5]: > 100 µM
- TGI [6]: > 100 µM
- TGI [7]: > 100 µM
- TGI [8]: > 100 µM
- TGI [9]: > 100 µM

Structure (SMILES): CC1=C2C(c3ccccc3)(c3ccccc3)C3C=CC2(C=N3)N(C(=O)NC2CCCCC2)C1=O (centres undefined)
- TGI [1]: 32.5 µM
- TGI [2]: 31.2 µM
- TGI [3]: 28.2 µM
- TGI [4]: 26.1 µM
- TGI [5]: 30.6 µM
- TGI [6]: 30.6 µM
- TGI [7]: 33.4 µM
- TGI [8]: 33.6 µM
- TGI [9]: 31.5 µM

Structure (SMILES): COC1=C(OC)CCC(/C(C#N)=C/c2ccc(OC)c(OC)c2)=C1
- TGI [1]: > 100 µM
- TGI [2]: > 100 µM
- TGI [3]: > 100 µM
- TGI [4]: > 100 µM
- TGI [5]: > 100 µM
- TGI [6]: > 100 µM
- TGI [7]: > 100 µM
- TGI [8]: > 100 µM
- TGI [9]: > 100 µM

Structure (SMILES): COc1ccc([C@H]2O[C@@H](CO)C[C@]2(O)c2ccc(OC)cc2)cc1
- GI50 [1]: > 100 µM
- TGI [1]: > 100 µM
- GI50 [10]: > 100 µM
- TGI [10]: > 100 µM
- GI50 [3]: > 100 µM
- TGI [3]: > 100 µM
- GI50 [4]: > 100 µM
- TGI [4]: > 100 µM
- GI50 [5]: > 100 µM
- TGI [5]: > 100 µM
- GI50 [6]: > 100 µM
- TGI [6]: > 100 µM
- GI50 [7]: > 100 µM
- TGI [7]: > 100 µM
- GI50 [8]: > 100 µM
- TGI [8]: > 100 µM
- GI50 [9]: > 100 µM
- TGI [9]: > 100 µM

Structure (SMILES): CCCCCCCCCC(=O)CC(=O)c1c(O)cccc1O
- TGI [1]: > 100 µM
- TGI [2]: 72.1 µM
- TGI [3]: 80.9 µM
- TGI [4]: > 100 µM
- TGI [5]: > 100 µM
- TGI [6]: 69.3 µM
- TGI [7]: > 100 µM
- TGI [8]: > 100 µM
- TGI [9]: 64 µM
